Tests used:
common ragweed (AMBEL) = test: Test 10 field trial, preemergence; format: in vivo, Ambrosia artemisiifolia; conditions: 28 DAA; g a.i./ha: Cpd 2 100, Atrazine 1680, S-Metolachlor 1870
Excerpt: Corn seeds (hybrid ‘Pioneer 33P65 RR’) were planted in mid spring season, 2.5 cm deep in a silt loam soil. Plots were 9.1 m long by 3.0 m wide with rows spaced 76 cm apart. The field was managed using conventional tillage practices. […] Results are the means of the three replicates.

shepherd's purse (CAPBP) = test: Test 5 field trial, postemergence; format: in vivo, Capsella bursa-pastoris; conditions: atrazine 1120, glufosinate 470 or glyphosate 1120 g a.i./ha alone
Excerpt: (§1) Corn seeds (hybrid ‘Pioneer 38H69’) were planted in mid spring season, 5.1 cm deep in a silty clay loam soil having 3% organic matter and a pH of 6.5. Plots were 9.1 m long by 3.0 m wide with rows spaced 76 cm apart. The field was managed using conventional tillage practices. […] All treatments included a surfactant except glufosinate treatments, both alone and in combination. […] Results are summarized in Table 5 and are the means of the three replicates.

field pennycress (THLAR) = test: Test 5 field trial, postemergence; format: in vivo, Thlaspi arvense; conditions: atrazine 1120, glufosinate 470 or glyphosate 1120 g a.i./ha alone
Excerpt: as §1

Surinam grass (BRADC) = test: Test 11 field trial, preemergence; format: in vivo, Brachiaria decumbens; parameters: scale not given here; conditions: atrazine 1500 or metolachlor 2500 g a.i./ha alone
Excerpt: (§2) Corn seeds (hybrid ‘Pioneer 3041’) were planted in mid spring season, 5 cm deep in a clay soil having 2.6% organic matter and a pH of 5.6. Plots were 8 m long by 1.5 m wide with rows spaced 80 cm apart. Seeds were spaced 15 cm apart within the rows. The field was managed using conventional tillage practices. […] Treatments consisted of Compound 2 or
(§3) Goosegrass was not evaluated 16 or 91 days after application.

[1] = system: common lambsquarters (CHEAL); test: Test 1 field trial, preemergence; format: in vivo, Chenopodium album; conditions: g a.i./ha: Atrazine 1680, S-Metolachlor 1870
Excerpt: (§4) Corn seeds (hybrid ‘Pioneer 34N43’) were planted in mid spring season, 3.8 cm deep in a silt loam soil having 4.6% organic matter and a pH of 6. Plots were 10.7 m long by 1.5 m wide with rows spaced 76 cm apart. Seeds were spaced 18 cm apart within the rows. The field was managed using conventional tillage practices. […] Results are summarized in Table 1 and are the means of the three replicates. […] Colby's Equation (Colby, S. R. “Calculating Synergistic and Antagonistic Responses of Herbicide Combinations,” Weeds, 15(1), pp 20-22 (1967)) calculates the expected additive effect of herbicidal mixtures, and for two active ingredients is of the form:
(§5) Pa+b=Pa+Pb−(PaPb/100) • wherein Pa+b is the percentage effect of the mixture expected from additive contribution of the individual components, • Pa is the observed percentage effect of the first active ingredient at the same use rate as in the mixture, and • Pb is the observed percentage effect of the second active ingredient at the same use rate as in the mixture.

[2] = system: Pennsylvania smartweed (POLPY); test: Test 1 field trial, preemergence; format: in vivo, Polygonum pensylvanicum; conditions: g a.i./ha: Atrazine 1680, S-Metolachlor 1870
Excerpt: as §4, §5

velvetleaf (ABUTH) = test: Test 1 field trial, preemergence; format: in vivo, Abutilon theophrasti; parameters: scale not given here; conditions: g a.i./ha: Atrazine 1680, S-Metolachlor 1870
Excerpt: as §4, §5

common blackjack (BIDPI) = test: Test 11 field trial, preemergence; format: in vivo, Bidens pilosa; parameters: scale not given here; conditions: atrazine 1500 or metolachlor 2500 g a.i./ha alone
Excerpt: as §2, §3

corn (ZEAMD) = test: Test 6 field trial, postemergence; format: in vivo, Zea mays ssp. indentata; conditions: 1120 g a.i./ha
Excerpt: (§6) Corn seeds (hybrid ‘Pioneer 35Y62’) were planted in mid spring season, 3.8 cm deep in a silt loam soil having 4% organic matter and a pH of 5.8. Plots were 10.7 m long by 1.5 m wide with rows spaced 76 cm apart. Seeds were spaced 18 cm apart within the rows. The field was managed using conventional tillage practices. […] All treatments included a surfactant except glufosinate treatments, both alone and in combination. […] Results are summarized in Table 6 and are the means of the three replicates.

[3] = system: Pennsylvania smartweed (POLPY); test: Test 6 field trial, postemergence; format: in vivo, Polygonum pensylvanicum; conditions: 1120 g a.i./ha
Excerpt: as §6

large crabgrass (DIGSA) = test: Test 5 field trial, postemergence; format: in vivo, Digitaria sanguinalis; conditions: atrazine 1120, glufosinate 470 or glyphosate 1120 g a.i./ha alone
Excerpt: as §1

[4] = system: ivyleaf morningglory (IPOHE); test: Test 8 field trial, preemergence; format: in vivo, Ipomoea hederacea; conditions: g a.i./ha: Cpd 2 100, Atrazine 1680, S-Metolachlor 1870
Excerpt: (§7) Corn seeds (hybrid ‘Pioneer 31G96’) were planted in mid spring season, 3.8 cm deep in a clay loam soil having 2% organic matter and a pH of 6.6. Plots were 6.1 m long by 3.0 m wide with rows spaced 76 cm apart. Seeds were spaced 15 cm apart within the rows. The field was managed using conventional tillage practices. […] A few of the weed species could not be evaluated at every timing. […] Results are the means of the three replicates.

[5] = system: common lambsquarters (CHEAL); test: Test 8 field trial, preemergence; format: in vivo, Chenopodium album; conditions: g a.i./ha: Cpd 2 100, Atrazine 1680, S-Metolachlor 1870
Excerpt: as §7

SMILES: CCNc1nc(Cl)nc(NC(C)C)n1 [Atrazine, atrazine, reference compound]
- AMBEL Obs (common ragweed (AMBEL)): 95%
- CAPBP Obs (shepherd's purse (CAPBP); 16 DAA): 95%
- CAPBP Obs (shepherd's purse (CAPBP); 31 DAA): 100%
- THLAR Obs (field pennycress (THLAR); 16 DAA): 95%
- THLAR Obs (field pennycress (THLAR); 31 DAA): 100%
- BRADC Obs (Surinam grass (BRADC); 16 DAA): 40
- BRADC Obs (Surinam grass (BRADC); 30 DAA): 20
- BRADC Obs (Surinam grass (BRADC); 44 DAA): 0
- BRADC Obs (Surinam grass (BRADC); 62 DAA): 0
- BRADC Obs (Surinam grass (BRADC); 91 DAA): 0
- CHEAL Obs ([1]; 28 DAA): 100
- CHEAL Obs ([1]; 56 DAA): 100
- POLPY Obs ([2]; 28 DAA): 93
- POLPY Obs ([2]; 56 DAA): 100
- ABUTH Obs (velvetleaf (ABUTH); 28 DAA): 75
- ABUTH Obs (velvetleaf (ABUTH); 56 DAA): 0
- BIDPI Obs (common blackjack (BIDPI); 16 DAA): 100
- BIDPI Obs (common blackjack (BIDPI); 30 DAA): 97
- BIDPI Obs (common blackjack (BIDPI); 44 DAA): 80
- BIDPI Obs (common blackjack (BIDPI); 62 DAA): 70
- BIDPI Obs (common blackjack (BIDPI); 91 DAA): 40
- ZEAMD Obs (corn (ZEAMD); 14 DAA): 0%
- ZEAMD Obs (corn (ZEAMD); 28 DAA): 0%
- POLPY Obs ([3]; 14 DAA): 73%
- POLPY Obs ([3]; 28 DAA): 83%
- DIGSA Obs (large crabgrass (DIGSA); 16 DAA): 0%
- DIGSA Obs (large crabgrass (DIGSA); 31 DAA): 0%
- IPOHE Obs ([4]; 19 DAA): 45%
- IPOHE Obs ([4]; 29 DAA): 100%
- IPOHE Obs ([4]; 56 DAA): 95%
- CHEAL Obs ([5]; 19 DAA): 100%
- CHEAL Obs ([5]; 56 DAA): 100%

Source: US20100285959A1, “HERBICIDAL MIXTURES” (priority 2006, published 2010)
